In article PMC10824666 (Nature Cancer, 2023):
Where two headings read alike, the source gives them in different places.

Key:
Test in all cases: biochemical
Parameters in all cases: Eurofins DiscoverX kinase panel, competitive binding assay at 1 uM, percent of DMSO control
Settings in all cases: competitive binding, percent of DMSO control
[1] = biological target: ERN1 (Homo sapiens, UniProt O75460)
Experimental: (§1) Extended Data Fig. 3 In vitro characterization of potent and selective KIF18A inhibitors. a, KIF18A compounds (1 µM) were assessed across a panel of kinases (n = 96) by a competitive binding assay. Graph presented as percentage of control (POC); dashed line indicates POC value of 30 (n = 1 experiment). b, Tubulin polymerization analysis. Profile of KIF18A compounds (10 µM) relative to DMSO, paclitaxel (5 µM, tubulin stabilizer), or nocodazole (5 µM, tubulin destabilizer). Graphs presented as tubulin fluorescence signal at 440 nm expressed as arbitrary units (a.u.) versus time (min) with area-under-the-curve (AUC) values (n = 1 or 3 independent experiments). c, Mitotic spindle image analysis. […] Representative images were captured with x40 objective (scale bar = 10 µm) (n = 1 experiment). d-f, KIF18A compound effects on HeLa cells. d, Cells were treated for 96 h with DMSO or KIF18A compounds at the indicated concentrations. KIF18A compound concentration-response profiles presented as count relative to the percentage of DMSO control (POC) with count EC50 values (n = 2 independent experiments in duplicate). e, KIF18A protein localization in cells after treatment for 6 hours with DMSO or AM-1882 (0.05 µM). Cells stained to detect DNA, KIF18A, and centrin-3. Representative images of mitotic cells (n = 3 per group) were captured with x60 objective (scale bar = 5 µm) and graphs of line scan measurements were obtained for DNA, KIF18A, and centrin-3 channels expressed as fluorescence intensity (a.u.) versus distance (µm) (n = 1 experiment). f, Mitotic cell fate imaging analysis. HeLa Kyoto cells co-expressing α-tubulin-EGFP and H2B-mCherry proteins released from a G1S block in media containing DMSO or AM-1882 (0.2 µM). Analysis was performed on cells entering the first mitosis (n = 40 cells per group). Graph presented as time in mitosis (h) versus mitotic cell fate, either complete cell division (CCD) or death in mitosis (DiM). Classified cells exiting mitosis by the number of daughter cells and cell death in […] We screened a small-molecule library of diverse compounds for selective inhibitors of KIF18A MT-ATPase motor activity. Two compound hits were discovered that phenocopied the effects of KIF18A KD in cells; these hits are structurally distinct from the KIF18A inhibitor BTB-1 (refs. [27],[28]). […] However, the potency of the KIF18A inhibitors was unaffected by varying ATP and MT concentrations (Extended Data Fig. 2d). This supports our proposed model in which KIF18A inhibitors occupy an allosteric pocket formed by motor helices α4 and α6 close to the motor MT-binding surface. To screen for potential off-target interactions with essential mitotic kinases, three of the KIF18A compounds were profiled against a large panel of kinases. […] We next investigated whether our KIF18A inhibitors affected tubulin polymerization in vitro in the absence of the KIF18A motor. All four KIF18A compounds had tubulin-polymerization profiles similar to that of the DMSO control and distinct from those of the paclitaxel (MT stabilizer) and nocodazole (MT destabilizer) co

[2] = biological target: T1, GAK (Homo sapiens, UniProt O14976)
T1 sequence (O14976 1-1311): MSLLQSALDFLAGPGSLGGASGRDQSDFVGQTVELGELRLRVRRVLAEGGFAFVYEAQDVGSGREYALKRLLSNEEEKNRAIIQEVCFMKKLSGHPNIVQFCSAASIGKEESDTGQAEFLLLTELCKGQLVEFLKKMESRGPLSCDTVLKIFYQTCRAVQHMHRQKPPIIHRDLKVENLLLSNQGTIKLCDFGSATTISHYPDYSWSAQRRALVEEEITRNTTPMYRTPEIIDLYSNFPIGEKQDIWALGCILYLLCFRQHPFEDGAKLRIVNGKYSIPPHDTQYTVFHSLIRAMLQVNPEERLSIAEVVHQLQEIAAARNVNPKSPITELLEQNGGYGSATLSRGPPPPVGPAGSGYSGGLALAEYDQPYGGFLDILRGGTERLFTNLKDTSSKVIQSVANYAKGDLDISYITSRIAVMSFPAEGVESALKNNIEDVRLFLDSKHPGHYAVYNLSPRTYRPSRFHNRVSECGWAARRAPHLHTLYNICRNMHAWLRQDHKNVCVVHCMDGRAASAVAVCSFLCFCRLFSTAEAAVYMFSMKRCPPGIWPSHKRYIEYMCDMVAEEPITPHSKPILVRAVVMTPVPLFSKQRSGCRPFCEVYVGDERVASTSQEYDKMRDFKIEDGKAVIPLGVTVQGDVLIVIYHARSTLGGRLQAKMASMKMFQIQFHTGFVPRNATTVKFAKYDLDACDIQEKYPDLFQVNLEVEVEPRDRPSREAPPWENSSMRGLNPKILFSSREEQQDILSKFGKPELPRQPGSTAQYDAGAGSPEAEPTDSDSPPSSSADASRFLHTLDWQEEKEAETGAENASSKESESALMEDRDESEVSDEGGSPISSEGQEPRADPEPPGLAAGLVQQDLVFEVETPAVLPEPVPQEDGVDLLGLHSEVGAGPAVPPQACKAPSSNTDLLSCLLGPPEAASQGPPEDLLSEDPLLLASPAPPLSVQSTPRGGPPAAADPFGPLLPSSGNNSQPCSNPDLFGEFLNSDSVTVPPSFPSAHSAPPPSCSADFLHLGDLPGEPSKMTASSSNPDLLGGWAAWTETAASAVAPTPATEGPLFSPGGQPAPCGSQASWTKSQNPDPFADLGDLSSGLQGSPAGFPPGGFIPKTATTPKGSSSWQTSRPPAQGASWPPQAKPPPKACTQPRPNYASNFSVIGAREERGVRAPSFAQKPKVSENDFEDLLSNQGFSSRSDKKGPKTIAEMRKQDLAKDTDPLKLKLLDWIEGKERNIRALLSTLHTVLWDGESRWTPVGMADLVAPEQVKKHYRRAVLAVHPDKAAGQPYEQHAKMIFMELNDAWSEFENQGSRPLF
Experimental: as §1

[3] = biological target: NEK4 (Homo sapiens, UniProt P51957)
Experimental: as §1

[4] = biological target: PIM1 (Homo sapiens, UniProt P11309)
Experimental: as §1

[5] = biological target: bRAF (Homo sapiens, UniProt P15056)
Experimental: as §1

[6] = read-out: Kinome Profiling performed by Eurofins DiscoverX / AM-1882, 1.0 µM / POC
[7] = read-out: Kinome Profiling performed by Eurofins DiscoverX / AM-0277, 1.0 µM / POC
[8] = read-out: Kinome Profiling performed by Eurofins DiscoverX / AM-5308, 1.0 µM / POC

Chain of bRAF (P15056 whole entry): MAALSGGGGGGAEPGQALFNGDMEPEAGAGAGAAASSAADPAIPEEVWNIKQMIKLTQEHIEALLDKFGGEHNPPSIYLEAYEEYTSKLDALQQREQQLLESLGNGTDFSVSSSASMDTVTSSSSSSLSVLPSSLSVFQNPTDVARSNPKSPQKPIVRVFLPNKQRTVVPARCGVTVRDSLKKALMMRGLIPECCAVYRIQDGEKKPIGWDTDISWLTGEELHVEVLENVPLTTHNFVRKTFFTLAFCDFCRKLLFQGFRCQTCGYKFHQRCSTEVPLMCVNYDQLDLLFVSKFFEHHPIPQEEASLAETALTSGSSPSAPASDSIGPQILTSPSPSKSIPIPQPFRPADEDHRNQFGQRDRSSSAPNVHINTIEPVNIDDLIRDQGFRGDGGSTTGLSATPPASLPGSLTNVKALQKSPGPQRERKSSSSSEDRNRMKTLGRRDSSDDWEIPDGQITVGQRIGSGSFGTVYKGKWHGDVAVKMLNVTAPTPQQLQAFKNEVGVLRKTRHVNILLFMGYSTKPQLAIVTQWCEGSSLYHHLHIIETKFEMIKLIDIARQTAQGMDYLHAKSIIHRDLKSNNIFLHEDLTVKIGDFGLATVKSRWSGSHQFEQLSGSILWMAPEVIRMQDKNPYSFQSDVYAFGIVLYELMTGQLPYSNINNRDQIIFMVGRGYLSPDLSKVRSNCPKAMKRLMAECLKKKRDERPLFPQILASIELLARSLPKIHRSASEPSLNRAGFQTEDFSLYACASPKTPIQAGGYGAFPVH
Chain of ERN1 (O75460 whole entry): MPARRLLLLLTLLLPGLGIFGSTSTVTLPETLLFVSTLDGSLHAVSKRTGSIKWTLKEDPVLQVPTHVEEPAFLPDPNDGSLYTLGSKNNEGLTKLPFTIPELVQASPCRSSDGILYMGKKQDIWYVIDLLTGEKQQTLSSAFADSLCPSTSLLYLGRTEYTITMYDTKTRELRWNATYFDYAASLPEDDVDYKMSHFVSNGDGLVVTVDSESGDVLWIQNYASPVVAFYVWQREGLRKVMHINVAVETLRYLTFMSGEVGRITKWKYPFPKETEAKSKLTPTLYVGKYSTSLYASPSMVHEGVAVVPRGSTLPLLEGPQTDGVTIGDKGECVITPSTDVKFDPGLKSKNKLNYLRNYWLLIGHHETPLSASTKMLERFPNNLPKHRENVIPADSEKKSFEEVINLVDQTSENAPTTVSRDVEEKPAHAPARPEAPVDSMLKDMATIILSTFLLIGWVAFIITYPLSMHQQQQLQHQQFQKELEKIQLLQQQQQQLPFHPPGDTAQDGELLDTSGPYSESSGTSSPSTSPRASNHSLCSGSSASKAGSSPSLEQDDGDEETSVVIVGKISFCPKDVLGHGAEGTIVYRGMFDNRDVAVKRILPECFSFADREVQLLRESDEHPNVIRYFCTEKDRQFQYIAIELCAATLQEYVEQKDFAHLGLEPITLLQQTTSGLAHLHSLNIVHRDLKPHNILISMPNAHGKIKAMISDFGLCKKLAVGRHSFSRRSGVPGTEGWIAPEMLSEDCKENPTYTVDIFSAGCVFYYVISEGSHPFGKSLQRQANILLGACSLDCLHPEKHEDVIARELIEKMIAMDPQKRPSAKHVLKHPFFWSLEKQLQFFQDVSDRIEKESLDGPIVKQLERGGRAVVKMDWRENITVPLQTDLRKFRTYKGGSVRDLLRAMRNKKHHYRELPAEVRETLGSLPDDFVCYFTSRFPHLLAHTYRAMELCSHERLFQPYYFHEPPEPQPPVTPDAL
Chain of NEK4 (P51957 whole entry): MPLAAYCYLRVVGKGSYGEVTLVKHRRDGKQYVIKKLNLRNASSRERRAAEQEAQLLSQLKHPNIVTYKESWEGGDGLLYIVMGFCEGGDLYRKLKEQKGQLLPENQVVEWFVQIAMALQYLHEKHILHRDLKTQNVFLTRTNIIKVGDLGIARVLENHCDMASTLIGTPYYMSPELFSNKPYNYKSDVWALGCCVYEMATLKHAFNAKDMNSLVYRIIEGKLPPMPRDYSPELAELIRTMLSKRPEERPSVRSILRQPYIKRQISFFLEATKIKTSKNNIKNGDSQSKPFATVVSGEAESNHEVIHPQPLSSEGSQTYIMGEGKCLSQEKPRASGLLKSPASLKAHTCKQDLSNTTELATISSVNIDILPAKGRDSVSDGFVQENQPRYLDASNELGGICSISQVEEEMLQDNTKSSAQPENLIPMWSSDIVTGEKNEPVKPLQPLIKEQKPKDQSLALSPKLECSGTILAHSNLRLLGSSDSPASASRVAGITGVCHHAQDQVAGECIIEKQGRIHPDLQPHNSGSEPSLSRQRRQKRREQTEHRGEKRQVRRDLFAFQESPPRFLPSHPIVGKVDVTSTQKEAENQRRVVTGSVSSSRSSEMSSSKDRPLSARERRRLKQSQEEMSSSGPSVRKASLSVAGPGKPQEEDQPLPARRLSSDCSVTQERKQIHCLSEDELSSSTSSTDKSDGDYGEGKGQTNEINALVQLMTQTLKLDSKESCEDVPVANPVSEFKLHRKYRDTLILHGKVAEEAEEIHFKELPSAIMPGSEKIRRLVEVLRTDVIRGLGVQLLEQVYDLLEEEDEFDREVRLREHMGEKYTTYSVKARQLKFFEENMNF
Chain of PIM1 (P11309 whole entry): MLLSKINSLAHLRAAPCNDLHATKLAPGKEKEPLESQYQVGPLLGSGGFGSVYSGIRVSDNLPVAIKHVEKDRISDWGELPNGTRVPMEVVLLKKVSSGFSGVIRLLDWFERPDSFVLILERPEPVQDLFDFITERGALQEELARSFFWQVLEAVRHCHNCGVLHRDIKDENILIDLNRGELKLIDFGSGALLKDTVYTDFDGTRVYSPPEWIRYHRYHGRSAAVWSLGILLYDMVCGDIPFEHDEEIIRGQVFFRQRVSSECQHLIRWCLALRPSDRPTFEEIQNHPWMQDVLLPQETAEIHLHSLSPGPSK

CC(C)(C)NS(=O)(=O)c1cccc(NC(=O)c2ccc(S(=O)(=O)NC(C)(C)C)cc2N2CCC3(CC2)CC3)c1 [AM-1882]
remaining activity at 1 µM [1, 6]: 100%
remaining activity at 1 µM [2, 6]: 99.5%
remaining activity at 1 µM [3, 6]: 89%
remaining activity at 1 µM [4, 6]: 88.5%
remaining activity at 1 µM [5, 6]: 94.5%

CC(C)(CO)Nc1ccc(C(=O)Nc2cccc(S(=O)(=O)C3CCCC3)c2)c(N2CCC3(CC2)CC3)n1 [AM-0277]
remaining activity at 1 µM [1, 7]: 100%
remaining activity at 1 µM [2, 7]: 100%
remaining activity at 1 µM [3, 7]: 100%
remaining activity at 1 µM [4, 7]: 100%
remaining activity at 1 µM [5, 7]: 100%

C[C@@H]1CN(c2cccc(NC(=O)c3ccc(NS(=O)(=O)CCO)cc3N3CCC4(CC3)CC4)n2)CCO1 [AM-5308]
remaining activity at 1 µM [1, 8]: 80%
remaining activity at 1 µM [2, 8]: 86%
remaining activity at 1 µM [3, 8]: 100%
remaining activity at 1 µM [4, 8]: 91%
remaining activity at 1 µM [5, 8]: 92.5%
